In patent US10881702B2, “Celastrol and derivatives thereof for the treatment of tumours and precancerous diseases of the skin” (PIERRE FABRE MEDICAMENT, priority 2016, dated 2021):

Assays:
[1] = system: healthy skin (epidermal keratinocytes); type: in vivo, mice (SKH-1); details: occlusive patch 30 h
Description: Apoptosis is a fundamental event in cell development (proliferation). The visualisation of apoptosis and the subsequent healing phenomenon reflects the efficacy of medicaments in the treatment of precancerous and cancerous cells. Picato® (0.015% ingenol mebutate) is a product on the market which is indicated for the treatment of actinic keratosis. Picato® is known to induce cell death by a necrotic effect that rapidly eliminates dead cells, followed by a healing phase. To evaluate the “apoptotic” power of celastrol on skin cells (epidermal keratinocytes), we compared the apoptotic effect induced by the topical application of celastrol compared to that of a product already on the market.
(§1) Non-inbred hairless SKH-1 strain mice are most commonly used in preclinical dermatological research. These non-pigmented and immunocompetent mice allow easy manipulation of the skin, application of topical agents, exposure to UV radiation and easy visualisation of the cutaneous response. Wound healing, acute biological photo responses and skin carcinogenesis are well characterised in this mouse strain. In addition, the tumours induced in these mice resemble, at both the molecular and the morphological level, UV-induced malignant skin tumours in humans. In this study on healthy skin, 6- to 8-week-old SKH-1 females (18 to 20 grams; Charles River Laboratories) are treated topically with the various compounds.
(§2) Picato® (0.015% ingenol mebutate), used in humans to treat actinic keratosis lesions, was administered topically to the animals (2 to 3 animals per group) for 24 hours under a 19-mm-diameter, i.e., 2.83 cm^2, occlusive patch (Hill Top Research, USA). The patch is loaded with 200 μL of Picato® cream, i.e. 30 μg of active ingredient. The treated skin area is delimited by tattooing on each mouse and the patch is held on the mouse using Tegaderm™ film and Omnifix® and Elastoplast™ adhesive tape. The occlusive dressing is removed after 24 hours, and the animals are followed clinically for 3 to 4 weeks.
Celastrol (Euromedex) is formulated in a vehicle consisting of 5% DMSO-70% glycerol-25% water. The pH is adjusted by adding soda to around 8-8.5 in order to completely solubilise the powder. The initial concentration is 10 mg/mL then serial dilutions in the vehicle yield concentrations of 5 and 2.5 mg/mL. Celastrol is applied topically for 30 hours under a 19-mm-diameter occlusive patch. The patches are loaded with 200 μL of the various celastrol solutions, i.e. 2000 μg, 1000 μg or 500 μg of active ingredient.
The treated skin area is delimited by tattooing on each mouse and the patch is held on the mouse using Tegaderm™ film and Omnifix® and Elastoplast™ adhesive tape. The occlusive bandage is removed after 30 hours and the animals are followed clinically for 3 to 4 weeks.
The animals are weighed twice per week. The treated area of each animal is photographed two to three times per week in order to follow the progression of the cutaneous reaction and healing.

[2] = Clinical monitoring: body weight of topically treated SKH-1 mice; type: in vivo, mice (SKH-1)
Description: as §1
as §2, with “weeks. […]” for “weeks.”

With `CC1=C(O)C(=O)C=C2C1=CC=C1[C@@]2(C)CC[C@@]2(C)[C@@H]3C[C@](C)(C(=O)O)CC[C@]3(C)CC[C@]12C` [celastrol] the “scar area on day 28” value ([1]; celastrol 1000 μg and 2000 μg doses) was “slight hypertrophy of the scar area”, the “cutaneous reaction first visible” value ([1]; celastrol 500, 1000, 2000 μg, 24 hours after discontinuation) was 3 days and the healing process starts ([1]; celastrol 500-2000 μg, dose-dependent) was 7 days. The “depth of the pro-apoptotic action” value ([1]; celastrol 500-2000 μg, localised in the epidermis) was “superficial”, the “dose from which apoptosis of epidermal cells is induced in vivo” value ([1]; celastrol topical, dose-dependent) was at least 500 μg/application and the haemorrhagic zones ([1]; celastrol, even at the highest dose (2000 μg)) was “no haemorrhagic zones are observed”. For the same compound, the “systemic toxicity / tolerance” value ([2]; topical route at the doses used, SKH-1 mice) was “no systemic toxicity” and the “effect on the weight of SKH-1 mice” value ([2]; topical, occlusive patch, Picato 200 μL (30 μg) 24 h, celastrol 500-2000 μg 30 h, weighed twice per week) was “no effect on the weight”.
